Data from patent publication US20250098679A1, “HERBICIDAL PYRIDONE DERIVATIVES” (SYNGENTA CROP PROTECTION AG, priority 2021, published 2025).

Assays:
Assay type in all cases: in vivo
Conditions in all cases: evaluated after 13 days
Zea mays (ZEAMX) [1] = test: Post-emergence Test, Zea mays (ZEAMX); parameters: key to percentage damage caused to the plant, ZEAMX (five-point scale): 5=81-100%, 4=61-80%, 3=41-60%, 2=21-40%, 1=0-20% damage
Method in brief: (§1)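 Percent plant damage was rated 13 days post-application on a 1–5 scale (1=0-20%, 5=81-100%). Application used an aqueous acetone (50:50)/0.5% Tween 20 spray, normally 1000 g/ha, with controlled glasshouse conditions (24/16 °C, 14 h light, 65% humidity).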

[2] = test system: Amaranthus retoflexus (AMARE); test: Post-emergence Test, Amaranthus retoflexus (AMARE); parameters: key to percentage damage caused to the plant, AMARE (five-point scale): 5=81-100%, 4=61-80%, 3=41-60%, 2=21-40%, 1=0-20% damage
Method in brief: as §1

[3] = test system: Ipomoea hederacea (IPOHE); test: Pre-emergence Test, Ipomoea hederacea (IPOHE)
[4] = test system: Ipomoea hederacea (IPOHE); test: Post-emergence Test, Ipomoea hederacea (IPOHE); parameters: key to percentage damage caused to the plant, IPOHE (five-point scale): 5=81-100%, 4=61-80%, 3=41-60%, 2=21-40%, 1=0-20% damage
Method in brief: as §1

[5] = test system: Amaranthus palmeri (AMAPA); test: Post-emergence Test, Amaranthus palmeri (AMAPA); parameters: key: 5=81-100%, 4=61-80%, 3=41-60%, 2=21-40%, 1=0-20% damage
Method in brief: as §1

Setaria faberi (SETFA) [6] = test: Post-emergence Test, Setaria faberi (SETFA); parameters: key to percentage damage caused to the plant, SETFA (five-point scale): 5=81-100%, 4=61-80%, 3=41-60%, 2=21-40%, 1=0-20% damage
Method in brief: as §1

[7] = test system: Echinochloa crus-galli (ECHCG); test: Post-emergence Test, Echinochloa crus-galli (ECHCG); parameters: key to percentage damage caused to the plant, ECHCG (five-point scale): 5=81-100%, 4=61-80%, 3=41-60%, 2=21-40%, 1=0-20% damage
Method in brief: as §1

[8] = test system: Echinochloa crus-galli (ECHCG); test: Pre-emergence Test, Echinochloa crus-galli (ECHCG)
[9] = test system: Amaranthus palmeri (AMAPA); test: Pre-emergence Test, Amaranthus palmeri (AMAPA)
[10] = test system: Amaranthus retoflexus (AMARE); test: Pre-emergence Test, Amaranthus retoflexus (AMARE)
Setaria faberi (SETFA) [11] = test: Pre-emergence Test, Setaria faberi (SETFA)
Zea mays (ZEAMX) [12] = test: Pre-emergence Test, Zea mays (ZEAMX)

Structure (SMILES)	percentage damage caused to the plant, ZEAMX (five-point scale) (Zea mays (ZEAMX) [1]; 250 g/Ha)	percentage damage caused to the plant, ZEAMX (five-point scale) (Zea mays (ZEAMX) [1]; 1000 g/ha)	percentage damage caused to the plant, AMARE (five-point scale) ([2]; 250 g/Ha)	percentage damage caused to the plant, AMARE (five-point scale) ([2]; 1000 g/ha)	Pre-emergence Test IPOHE, percentage damage caused to the plant (five-point scale) ([3]; 250 g/Ha (*))	Pre-emergence Test IPOHE, percentage damage caused to the plant (five-point scale) ([3]; 1000 g/ha)	percentage damage caused to the plant, IPOHE (five-point scale) ([4]; 250 g/Ha)	percentage damage caused to the plant, IPOHE (five-point scale) ([4]; 1000 g/ha)	percentage damage caused to the plant, AMAPA (five-point scale) ([5]; 250 g/Ha)	percentage damage caused to the plant, AMAPA (five-point scale) ([5]; 1000 g/ha)	percentage damage caused to the plant, SETFA (five-point scale) (Setaria faberi (SETFA) [6]; 250 g/Ha)	percentage damage caused to the plant, SETFA (five-point scale) (Setaria faberi (SETFA) [6]; 1000 g/ha)	percentage damage caused to the plant, ECHCG (five-point scale) ([7]; 250 g/Ha)	percentage damage caused to the plant, ECHCG (five-point scale) ([7]; 1000 g/ha)	Pre-emergence Test ECHCG, percentage damage caused to the plant (five-point scale) ([8]; 250 g/Ha (*))	Pre-emergence Test ECHCG, percentage damage caused to the plant (five-point scale) ([8]; 1000 g/ha)	Pre-emergence Test AMAPA, percentage damage caused to the plant (five-point scale) ([9]; 250 g/Ha (*))	Pre-emergence Test AMARE, percentage damage caused to the plant (five-point scale) ([10]; 250 g/Ha (*))	Pre-emergence Test SETFA, percentage damage caused to the plant (five-point scale) (Setaria faberi (SETFA) [11]; 250 g/Ha (*))	Pre-emergence Test ZEAMX, percentage damage caused to the plant (five-point scale) (Zea mays (ZEAMX) [12]; 250 g/Ha (*))	also measured
CCn1c(Cn2ccc(I)n2)cc(=O)c(C(=O)O)c1-c1ccc(Cl)c(Cl)c1 [Compound 78, 2-(3,4-dichlorophenyl)-1-ethyl-6-[(3-iodopyrazol-1-yl)methyl]-4-oxo-pyridine-3-carboxylic acid]	1 (1=0-20%)	3 (3=41-60%)	1 (1=0-20%)	3 (3=41-60%)	4 (4=61-80%)	4 (4=61-80%)	4 (4=61-80%)	4 (4=61-80%)	2 (2=21-40%)	2 (2=21-40%)	4 (4=61-80%)	4 (4=61-80%)	3 (3=41-60%)	4 (4=61-80%)	5 (5=81-100%)	5 (5=81-100%)	3 (3=41-60%)	2 (2=21-40%)	5 (5=81-100%)	4 (4=61-80%)	Pre-emergence Test AMAPA, percentage damage caused to the plant (five-point scale) ([9]; 1000 g/ha): 2 (2=21-40%); Pre-emergence Test AMARE, percentage damage caused to the plant (five-point scale) ([10]; 1000 g/ha): 2 (2=21-40%); Pre-emergence Test SETFA, percentage damage caused to the plant (five-point scale) (Setaria faberi (SETFA) [11]; 1000 g/ha): 5 (5=81-100%); Pre-emergence Test ZEAMX, percentage damage caused to the plant (five-point scale) (Zea mays (ZEAMX) [12]; 1000 g/ha): 3 (3=41-60%)
CCn1c(Cn2cncc2Cl)cc(=O)c(C(=O)O)c1-c1ccc(Cl)c(Cl)c1 [Compound 79, 6-[(5-chloroimidazol-1-yl)methyl]-2-(3,4-dichlorophenyl)-1-ethyl-4-oxo-pyridine-3-carboxylic acid]	1 (1=0-20%)	–	1 (1=0-20%)	–	0	–	1 (1=0-20%)	–	0	–	0	–	1 (1=0-20%)	–	1 (1=0-20%)	–	1 (1=0-20%)	0	1 (1=0-20%)	0	–
CCn1c(Cn2nccc2Cl)cc(=O)c(C(=O)O)c1-c1ccc(Cl)c(Cl)c1 [Compound 80, 6-[(5-chloropyrazol-1-yl)methyl]-2-(3,4-dichlorophenyl)-1-ethyl-4-oxo-pyridine-3-carboxylic acid]	1 (1=0-20%)	3 (3=41-60%)	2 (2=21-40%)	2 (2=21-40%)	2 (2=21-40%)	3 (3=41-60%)	4 (4=61-80%)	3 (3=41-60%)	2 (2=21-40%)	2 (2=21-40%)	3 (3=41-60%)	4 (4=61-80%)	3 (3=41-60%)	4 (4=61-80%)	3 (3=41-60%)	5 (5=81-100%)	1 (1=0-20%)	0	4 (4=61-80%)	0	Pre-emergence Test AMAPA, percentage damage caused to the plant (five-point scale) ([9]; 1000 g/ha): 1 (1=0-20%); Pre-emergence Test AMARE, percentage damage caused to the plant (five-point scale) ([10]; 1000 g/ha): 0; Pre-emergence Test SETFA, percentage damage caused to the plant (five-point scale) (Setaria faberi (SETFA) [11]; 1000 g/ha): 5 (5=81-100%); Pre-emergence Test ZEAMX, percentage damage caused to the plant (five-point scale) (Zea mays (ZEAMX) [12]; 1000 g/ha): 0
